According to ChEMBL document CHEMBL1146940, “Structure-activity relationship study between Ornithyl-Proline and Lysyl-Proline based tripeptidomimics as angiotensin-converting enzyme inhibitors” (Bioorg Med Chem Lett, 2006):
Square brackets hold non-standard residues; d marks the D form. Peptide text beside a SMILES is read from it. Trp(5-OH) = N[C@@H](Cc1c[nH]c2ccc(O)cc12)C(=O)O; NMeW = CN[C@@H](Cc1c[nH]c2ccccc12)C(=O)O; Dip = N[C@H](C(=O)O)C(c1ccccc1)c1ccccc1; β3hW = N[C@H](CC(=O)O)Cc1c[nH]c2ccccc12; Tic = O=C(O)[C@@H]1Cc2ccccc2CN1; 3Thi = N[C@@H](Cc1ccsc1)C(=O)O; Cha = N[C@@H](CC1CCCCC1)C(=O)O; Orn = NCCC[C@H](N)C(=O)O

Assays:
[1] = target: Angiotensin-converting enzyme (Bos taurus) (UniProt P12820); test: Activity against ACE in bovine kidney
Angiotensin-converting enzyme (Bos taurus), sequence (P12820 whole entry, looked up): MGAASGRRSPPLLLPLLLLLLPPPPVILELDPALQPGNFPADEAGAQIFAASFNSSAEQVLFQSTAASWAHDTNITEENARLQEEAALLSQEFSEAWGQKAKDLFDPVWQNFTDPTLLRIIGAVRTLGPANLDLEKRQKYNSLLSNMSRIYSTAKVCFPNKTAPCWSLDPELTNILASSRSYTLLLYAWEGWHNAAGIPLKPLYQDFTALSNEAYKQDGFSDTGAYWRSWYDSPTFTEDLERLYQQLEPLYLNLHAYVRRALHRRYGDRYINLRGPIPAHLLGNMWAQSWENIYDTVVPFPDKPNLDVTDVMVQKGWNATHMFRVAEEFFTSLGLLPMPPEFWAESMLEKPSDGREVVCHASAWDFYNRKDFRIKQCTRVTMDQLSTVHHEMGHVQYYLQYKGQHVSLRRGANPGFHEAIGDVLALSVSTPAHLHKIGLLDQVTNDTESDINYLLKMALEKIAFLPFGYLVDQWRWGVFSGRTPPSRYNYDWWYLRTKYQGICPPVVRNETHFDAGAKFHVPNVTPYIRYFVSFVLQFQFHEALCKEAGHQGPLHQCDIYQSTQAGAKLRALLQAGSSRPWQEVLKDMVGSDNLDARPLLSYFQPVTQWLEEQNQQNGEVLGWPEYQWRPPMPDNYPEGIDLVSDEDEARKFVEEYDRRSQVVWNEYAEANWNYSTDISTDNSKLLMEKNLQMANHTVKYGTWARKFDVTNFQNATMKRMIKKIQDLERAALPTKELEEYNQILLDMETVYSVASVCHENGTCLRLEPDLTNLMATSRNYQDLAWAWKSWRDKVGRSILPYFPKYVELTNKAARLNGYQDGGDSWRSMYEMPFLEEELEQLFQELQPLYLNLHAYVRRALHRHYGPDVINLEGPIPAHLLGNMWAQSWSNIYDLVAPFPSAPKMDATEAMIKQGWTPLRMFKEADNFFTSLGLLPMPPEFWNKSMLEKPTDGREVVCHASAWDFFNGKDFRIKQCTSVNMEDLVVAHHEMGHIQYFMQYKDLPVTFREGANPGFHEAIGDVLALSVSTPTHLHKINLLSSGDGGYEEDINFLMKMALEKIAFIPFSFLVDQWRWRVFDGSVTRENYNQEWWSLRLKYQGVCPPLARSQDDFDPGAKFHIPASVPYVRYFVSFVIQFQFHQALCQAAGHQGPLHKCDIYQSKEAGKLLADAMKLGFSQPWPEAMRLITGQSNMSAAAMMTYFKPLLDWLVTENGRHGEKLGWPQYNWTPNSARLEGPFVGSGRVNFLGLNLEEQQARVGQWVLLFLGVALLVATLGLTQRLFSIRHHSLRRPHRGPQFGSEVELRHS

[2] = target: Angiotensin-converting enzyme (Bos taurus) (UniProt P12820); test: Inhibition of ACE in bovine kidney; parameters: concentration or dose not given beside the values; settings: concentration not given here

| SMILES | Activity [1] [mU/ml] | inhibition [2] [%] |
| --- | --- | --- |
| NCCC[C@H](NC(=O)C[C@@H](N)Cc1ccccc1)C(=O)N1CCC[C@H]1C(=O)O | 9.21 | 31.7 |
| NCCCC[C@H](NC(=O)C[C@@H](N)Cc1ccccc1)C(=O)N1CCC[C@H]1C(=O)O | 10.4 | 22.6 |
| NCCCC[C@H](NC(=O)C[C@@H](N)Cc1c[nH]c2ccccc12)C(=O)N1CCC[C@H]1C(=O)O (H-[β3hW]-Lys-Pro-OH) | 9.4 | 30.2 |
| NCCCC[C@H](NC(=O)[C@@H](N)CC1CCCCC1)C(=O)N1CCC[C@H]1C(=O)O (H-[Cha]-Lys-Pro-OH) | 13.1 | 3.71 |
| NCCC[C@H](NC(=O)CCc1nc2ccccc2[nH]1)C(=O)N1CCC[C@H]1C(=O)O | 4.7 | 65.5 |
| NCCC[C@H](NC(=O)C[C@@H](N)Cc1c[nH]c2ccccc12)C(=O)N1CCC[C@H]1C(=O)O (H-[β3hW]-[Orn]-Pro-OH) | 12.2 | 9.13 |
| NCCC[C@H](NC(=O)[C@@H](N)C(c1ccccc1)c1ccccc1)C(=O)N1CCC[C@H]1C(=O)O (H-[Dip]-[Orn]-Pro-OH) | 9.74 | 27.7 |
| NCCCC[C@H](NC(=O)CCc1ccc(O)cc1)C(=O)N1CCC[C@H]1C(=O)O | 9.52 | 29.3 |
| NCCC[C@H](NC(=O)CCc1ccc(O)cc1)C(=O)N1CCC[C@H]1C(=O)O | 10.3 | 23.8 |
| NCCCC[C@H](NC(=O)[C@@H](N)C(c1ccccc1)c1ccccc1)C(=O)N1CCC[C@H]1C(=O)O (H-[Dip]-Lys-Pro-OH) | 8.91 | 33.8 |
| NCCC[C@H](NC(=O)[C@@H](N)CC1CCCCC1)C(=O)N1CCC[C@H]1C(=O)O (H-[Cha]-[Orn]-Pro-OH) | 9.32 | 30.8 |
| NCCCC[C@H](NC(=O)[C@@H](N)Cc1ccco1)C(=O)N1CCC[C@H]1C(=O)O | 12.1 | 10.1 |
| NCCC[C@H](NC(=O)[C@@H]1Cc2ccccc2CN1)C(=O)N1CCC[C@H]1C(=O)O (H-[Tic]-[Orn]-Pro-OH) | 10.1 | 25 |
| NCCCC[C@H](NC(=O)[C@@H]1Cc2ccccc2CN1)C(=O)N1CCC[C@H]1C(=O)O (H-[Tic]-Lys-Pro-OH) | 10.8 | 19.4 |

The next lines start with the values.

| Activity [1] [mU/ml] | inhibition [2] [%] | SMILES |
| --- | --- | --- |
| 8.2 | 39.1 | CN[C@@H](Cc1c[nH]c2ccccc12)C(=O)N[C@@H](CCCCN)C(=O)N1CCC[C@H]1C(=O)O (H-[NMeW]-Lys-Pro-OH) |
| 8.67 | 35.6 | NCCC[C@H](NC(=O)[C@@H](N)Cc1ccco1)C(=O)N1CCC[C@H]1C(=O)O |
| 4.2 | 68.8 | NCCC[C@H](NC(=O)[C@@H](N)Cc1c[nH]c2ccc(O)cc12)C(=O)N1CCC[C@H]1C(=O)O (H-[Trp(5-OH)]-[Orn]-Pro-OH) |
| 11.7 | 13.3 | NCCCC[C@H](NC(=O)[C@@H](N)Cc1ccsc1)C(=O)N1CCC[C@H]1C(=O)O (H-[3Thi]-Lys-Pro-OH) |
| 4.88 | 63.6 | CN[C@@H](Cc1c[nH]c2ccccc12)C(=O)N[C@@H](CCCN)C(=O)N1CCC[C@H]1C(=O)O (H-[NMeW]-[Orn]-Pro-OH) |
| 3.41 | 74.7 | NCCC[C@H](NC(=O)[C@@H](N)Cc1ccsc1)C(=O)N1CCC[C@H]1C(=O)O (H-[3Thi]-[Orn]-Pro-OH) |
